# Where two headings read alike, the source gives them in different places.
# What was measured:
# Type in all cases: in vivo
# weeds and/or crops = experiment: Post-emergence biological efficacy (Table 4); settings: evaluated after 13 days; for pest or weed control at 1000 g/ha / pest or weed control at 250 g/ha: 312 h; for pest or weed control at 1000 g/ha / damage to plant LOLPE (100=total damage; 0=no damage): 1000 g/ha
# In short: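 Weeds and crops were grown 14 days in a glasshouse, then sprayed post-emergence with compound formulated in acetone/F50 and diluted in 0.2% Genapol X080 to the final dose. Damage was scored after 13 days on a 0–100 scale, where 100 is total damage.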
# IPOHE = experiment: Pre-emergence biological efficacy (Table 3); settings: Ipomoea hederacea, 312 h, after 13 days, read-out: evaluation (100=total damage to plant; 0=no damage to plant)
# In short: (§1)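 Pre-emergence spray applied one day post-sowing; aqueous solution from 50 g/l AMA-based formulation in 0.2% Genapol X080. Evaluation at 13 days, 0 = no damage, 100 = total damage.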
# LOLPE = experiment: Pre-emergence biological efficacy (Table 3); settings: 1000 g/ha, after 13 days
# In short: as §1
# ECHCG = experiment: Pre-emergence biological efficacy (Table 3); settings: Echinochloa crus-galli, 312 h, after 13 days, read-out: evaluation (100=total damage to plant; 0=no damage to plant)
# In short: as §1
# AMARE = experiment: Pre-emergence biological efficacy (Table 3); settings: Amaranthus retroflexus, 312 h, after 13 days, read-out: evaluation (100=total damage to plant; 0=no damage to plant)
# In short: as §1
# SETFA = experiment: Pre-emergence biological efficacy (Table 3); settings: Setaria faberi, 312 h, after 13 days, read-out: evaluation (100=total damage to plant; 0=no damage to plant)
# In short: as §1
# AMAPA = experiment: Pre-emergence biological efficacy (Table 3); settings: 312 h, after 13 days, read-out: evaluation (100=total damage to plant; 0=no damage to plant)
# In short: as §1
# ZEAMX = experiment: Pre-emergence biological efficacy (Table 3); settings: 312 h, after 13 days, read-out: evaluation (100=total damage to plant; 0=no damage to plant)
# In short: as §1
# [1] = Amaranthus retroflexus, AMARE, read-out: damage to plant AMARE (100=total damage; 0=no damage)
# [2] = Echinochloa crus-galli, ECHCG, read-out: damage to plant ECHCG (100=total damage; 0=no damage)
# [3] = Ipomoea hederacea, IPOHE, read-out: damage to plant IPOHE (100=total damage; 0=no damage)
# [4] = Setaria faberi, SETFA, read-out: damage to plant SETFA (100=total damage; 0=no damage)
# [5] = AMAPA, read-out: damage to plant AMAPA (100=total damage; 0=no damage)
# [6] = ZEAMX, read-out: damage to plant ZEAMX (100=total damage; 0=no damage)
Compound,pest or weed control at 1000 g/ha (weeds and/or crops; [1]) [%],pest or weed control at 1000 g/ha (weeds and/or crops; [2]) [%],pest or weed control at 1000 g/ha (weeds and/or crops; [3]) [%],pest or weed control at 1000 g/ha (weeds and/or crops; [4]) [%],pest or weed control at 1000 g/ha (IPOHE) [%],pest or weed control at 1000 g/ha (ECHCG) [%],pest or weed control at 1000 g/ha (AMARE) [%],pest or weed control at 1000 g/ha (SETFA) [%],pest or weed control at 1000 g/ha (weeds and/or crops; [5]) [%],pest or weed control at 1000 g/ha (weeds and/or crops; [6]) [%],pest or weed control at 1000 g/ha (AMAPA) [%],plant injury at 1000 g/ha (ZEAMX) [%],further results
"COc1cccc(Cl)c1C(F)(F)C(=O)O [Compound 1-65, 2-(2-Chloro-6-methoxy-phenyl)-2,2-difluoro-acetic acid]",70,0,70,0,40,0,60,0,–,–,–,–,damage to plant LOLPE (100=total damage; 0=no damage) (weeds and/or crops): 0; evaluation (100=total damage to plant; 0=no damage to plant) (LOLPE): 0
"COc1c(Cl)ccc(Cl)c1C(F)(F)C(=O)O [Compound 1-326, 2-(3,6-dichloro-2-methoxy-phenyl)-2,2-difluoro-acetic acid]",80,0,80,0,20,30,50,10,–,–,–,–,damage to plant LOLPE (100=total damage; 0=no damage) (weeds and/or crops): 0; evaluation (100=total damage to plant; 0=no damage to plant) (LOLPE): 10
"COC(=O)c1c(Cl)cccc1C(F)(F)C(=O)O [Compound 1-444, 2-(3-Chloro-2-methoxycarbonyl-phenyl)-2,2-difluoro-acetic acid]",70,10,50,20,50,0,40,0,60,10,60,0,–
"O=C(O)C(F)(F)c1cccc(Cl)c1OC(F)F [Compound 1-452, 2-[3-Chloro-2-(difluoromethoxy)phenyl]-2,2-difluoro-acetic acid]",80,50,70,50,70,10,50,30,80,40,50,30,–
"COc1c(F)ccc(C(F)(F)C(=O)O)c1F [Compound 1-458, 2-(2,4-Difluoro-3-methoxy-phenyl)-2,2-difluoro-acetic acid]",90,90,70,90,80,0,90,0,90,40,90,20,–
"O=C(O)C(F)(F)c1cccc(OC(F)F)c1Cl [Compound 1-459, 2-[2-Chloro-3-(difluoromethoxy)phenyl]-2,2-difluoro-acetic acid]",80,40,90,60,90,50,70,100,80,20,80,0,–
"N#Cc1c(F)ccc(C(F)(F)C(=O)O)c1Cl [Compound 1-460, 2-(2-Chloro-3-cyano-4-fluoro-phenyl)-2,2-difluoro-acetic acid]",90,20,60,40,70,0,80,10,90,10,90,10,–
"COc1ccc(C(F)(F)C(=O)O)c([N+](=O)[O-])c1F [Compound 1-461, 2,2-Difluoro-2-(3-fluoro-4-methoxy-2-nitro-phenyl)acetic acid]",80,10,20,30,20,0,40,30,80,0,30,10,–
"Cc1cccc(C(F)(F)C(=O)O)c1C#N [Compound 1-462, 2-(2-Cyano-3-methyl-phenyl)-2,2-difluoro-acetic acid]",80,0,70,20,40,0,50,0,80,10,30,0,–
"COc1c(C)cccc1C(F)(F)C(=O)O [Compound 1-463, 2,2-Difluoro-2-(2-methoxy-3-methyl-phenyl)acetic acid]",80,10,70,30,50,0,50,0,70,10,60,0,–
"COc1c(C(F)(F)F)cccc1C(F)(F)C(=O)O [Compound 1-464, 2,2-Difluoro-2-[2-methoxy-3-(trifluoromethyl)phenyl]acetic acid]",–,–,–,–,–,–,–,–,–,–,–,–,pest or weed control at 250 g/ha (weeds and/or crops; [5]): 80%; pest or weed control at 250 g/ha (weeds and/or crops; [6]): 10%; pest or weed control at 250 g/ha (weeds and/or crops; [1]): 80%; pest or weed control at 250 g/ha (weeds and/or crops; [2]): 70%; pest or weed control at 250 g/ha (weeds and/or crops; [3]): 60%; pest or weed control at 250 g/ha (weeds and/or crops; [4]): 70%; pest or weed control at 250 g/ha (AMAPA; 250 g/ha): 60%; pest or weed control at 250 g/ha (IPOHE; 250 g/ha): 50%; pest or weed control at 250 g/ha (ECHCG; 250 g/ha): 10%; plant injury at 250 g/ha (ZEAMX; 250 g/ha): 20%; pest or weed control at 250 g/ha (AMARE; 250 g/ha): 40%; pest or weed control at 250 g/ha (SETFA; 250 g/ha): 30%
"O=C(O)C(F)(F)c1ccccc1OC(F)(F)F [Compound 1-465, 2,2-Difluoro-2-[2-(trifluoromethoxy)phenyl]acetic acid]",80,60,70,30,20,20,70,20,80,20,70,20,–
